# According to PubChem BioAssay AID2060890 (Molecular Pharmacology Branch, DTP, NCI, 2025):
# Values joined by “and” are separate entries in the source; they are usually repeats but may differ in a detail not shown here. Equal entries are not always repeated.
# System: LG0703-F948-PDC complex spheroid viability
# Assay: Anticancer human tumor LG0703-F948-PDC patient-derived lung adenocarcinoma cell line growth inhibition [RAS]
# Details: for viability, T/C: stronger effect = lower value
# Summary of the method: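 Multi-cell-type spheroids: tumor cells plus HUVEC endothelial cells and mesenchymal stem cells. RAS-pathway inhibitors were combined with targeted agents, each dosed in half-log steps down from clinical Cmax, or from 10 microM when Cmax was unknown.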
# [1] = curve of first compound, second compound 0.000949 µM
# [2] = curve of first compound, second compound 0.003 µM
# [3] = curve of first compound, second compound 0.00949 µM
# [4] = curve of first compound, second compound 0.03 µM
# [5] = curve of first compound, second compound 0.0949 µM
# [6] = curve of first compound, second compound 0.3 µM
# [7] = second compound 0.000949 µM, first compound 0.0316 µM
# [8] = second compound 0.000949 µM, first compound 0.1 µM
# [9] = second compound 0.000949 µM, first compound 0.316 µM
# [10] = second compound 0.000949 µM, first compound 1 µM
# [11] = second compound 0.003 µM, first compound 0.0316 µM
# [12] = second compound 0.003 µM, first compound 0.1 µM
# [13] = second compound 0.003 µM, first compound 0.316 µM
# [14] = second compound 0.003 µM, first compound 1 µM
# [15] = second compound 0.00949 µM, first compound 0.0316 µM
# [16] = second compound 0.00949 µM, first compound 0.1 µM
# [17] = second compound 0.00949 µM, first compound 0.316 µM
# [18] = second compound 0.00949 µM, first compound 1 µM
# [19] = second compound 0.03 µM, first compound 0.0316 µM
# [20] = second compound 0.03 µM, first compound 0.1 µM
# [21] = second compound 0.03 µM, first compound 0.316 µM
# [22] = second compound 0.03 µM, first compound 1 µM
# [23] = second compound 0.0949 µM, first compound 0.0316 µM
# [24] = second compound 0.0949 µM, first compound 0.1 µM
# [25] = second compound 0.0949 µM, first compound 0.316 µM
# [26] = second compound 0.0949 µM, first compound 1 µM
# [27] = second compound 0.3 µM, first compound 0.0316 µM
# [28] = second compound 0.3 µM, first compound 0.1 µM
# [29] = second compound 0.3 µM, first compound 0.316 µM
# [30] = second compound 0.3 µM, first compound 1 µM
# 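Further: spheroids exposed to agents for 7 days.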
# 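Wherever viability, T/C is given: 100% = DMSO vehicle wells.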
compound,measurement,setting,value
CC(C)n1nc(-c2ccc3oc(N)nc3c2)c2c(N)ncnc21,"viability, T/C",compound 0.000316 µM,104% [middle of 4 runs]
same,"viability, T/C",compound 0.00316 µM,65.1% [middle of 4 runs]
same,"viability, T/C",compound 0.01 µM,40.8% [middle of 4 runs]
same,"viability, T/C",compound 0.0316 µM,23.2% [middle of 4 runs]
same,"viability, T/C",compound 0.1 µM,17% [middle of 4 runs]
same,IC50,curve of compound,6.31 nM [middle of 4 runs]
CCC(CC)c1cc(NC2CCC(N)C2)n2nccc2n1 (configuration not stated),"viability, T/C",compound 0.0316 µM,85.9% and 96.8% and 101%
same,"viability, T/C",compound 0.1 µM,94.6% and 93.7% and 90%
same,"viability, T/C",compound 0.316 µM,75.7% and 85.7% and 97%
same,"viability, T/C",compound 1 µM,76.4% and 54.7% and 68.8%
same,"viability, T/C",compound 3.16 µM,4.37% and 1.19% and 2.28%
same,"viability, T/C",compound 10 µM,0.41% and 0.27% and 0.38%
same,IC50,curve of compound,1520 nM and 1080 nM and 1380 nM
CCN1CCN(Cc2ccc(Nc3ncc(F)c(-c4cc(F)c5nc(C)n(C(C)C)c5c4)n3)nc2)CC1 + CCn1c(-c2cccnc2C(C)OC)c2c3cc(ccc31)N1CCOC(CC(NC(=O)C(C(C)C)N(C)C(=O)C3(F)CCN(C(=O)C#CC(C)(C)N(C)C)CC3)C(=O)N3CCCC(N3)C(=O)OCC(C)(C)C2)C1,IC50,[1],> 1000 nM
same,IC50,[2],> 1000 nM
same,IC50,[3],> 1000 nM
same,IC50,[4],> 1000 nM
same,IC50,[5],> 1000 nM
same,IC50,[6],< 3.16 nM
same,"viability, T/C","second compound 0.000949 µM, first compound 0.00316 µM",103%
same,"viability, T/C","second compound 0.000949 µM, first compound 0.01 µM",111%
same,"viability, T/C",[7],91.9%
same,"viability, T/C",[8],81.8%
same,"viability, T/C",[9],79.4%
same,"viability, T/C",[10],80.5%
same,"viability, T/C","second compound 0.003 µM, first compound 0.00316 µM",101%
same,"viability, T/C","second compound 0.003 µM, first compound 0.01 µM",97.3%
same,"viability, T/C",[11],81.1%
same,"viability, T/C",[12],104%
same,"viability, T/C",[13],111%
same,"viability, T/C",[14],76.8%
same,"viability, T/C","second compound 0.00949 µM, first compound 0.00316 µM",101%
same,"viability, T/C","second compound 0.00949 µM, first compound 0.01 µM",97.2%
same,"viability, T/C",[15],93%
same,"viability, T/C",[16],108%
same,"viability, T/C",[17],82.4%
same,"viability, T/C",[18],94.8%
same,"viability, T/C","second compound 0.03 µM, first compound 0.00316 µM",96.9%
same,"viability, T/C","second compound 0.03 µM, first compound 0.01 µM",98%
same,"viability, T/C",[19],95.5%
same,"viability, T/C",[20],75.4%
same,"viability, T/C",[21],81.2%
same,"viability, T/C",[22],79%
same,"viability, T/C","second compound 0.0949 µM, first compound 0.00316 µM",90.7%
same,"viability, T/C","second compound 0.0949 µM, first compound 0.01 µM",86.8%
same,"viability, T/C",[23],86.3%
same,"viability, T/C",[24],90.1%
same,"viability, T/C",[25],84.8%
same,"viability, T/C",[26],74.8%
same,"viability, T/C","second compound 0.3 µM, first compound 0.00316 µM",54.6%
same,"viability, T/C","second compound 0.3 µM, first compound 0.01 µM",40%
same,"viability, T/C",[27],56.4%
same,"viability, T/C",[28],54.7%
same,"viability, T/C",[29],59.8%
same,"viability, T/C",[30],54.5%
Cc1nc(N2CCC3(CC2)COC(C)C3N)c(CO)nc1Sc1ccnc(N)c1Cl (configuration not stated) + CCn1c(-c2cc(N3CCN(C)CC3)cnc2C(C)OC)c2c3cc(ccc31)-c1csc(n1)CC(NC(=O)C1CC1C)C(=O)N1CCCC(N1)C(=O)OCC(C)(C)C2,IC50,[1],93 nM
same,IC50,[2],< 31.6 nM
same,IC50,[3],< 31.6 nM
same,IC50,[4],< 31.6 nM
same,IC50,[5],< 31.6 nM
same,IC50,[6],< 31.6 nM
same,"viability, T/C",[7],68%
same,"viability, T/C",[8],48%
same,"viability, T/C",[9],32.7%
same,"viability, T/C",[10],18.2%
same,"viability, T/C","second compound 0.000949 µM, first compound 3.16 µM",11.3%
same,"viability, T/C","second compound 0.000949 µM, first compound 10 µM",8.65%
same,"viability, T/C",[11],32.3%
same,"viability, T/C",[12],23.9%
same,"viability, T/C",[13],21.1%
same,"viability, T/C",[14],14.9%
same,"viability, T/C","second compound 0.003 µM, first compound 3.16 µM",6.78%
same,"viability, T/C","second compound 0.003 µM, first compound 10 µM",5.16%
same,"viability, T/C",[15],26%
same,"viability, T/C",[16],15.7%
same,"viability, T/C",[17],10.6%
same,"viability, T/C",[18],10.2%
same,"viability, T/C","second compound 0.00949 µM, first compound 3.16 µM",6.57%
same,"viability, T/C","second compound 0.00949 µM, first compound 10 µM",7.31%
same,"viability, T/C",[19],13.2%
same,"viability, T/C",[20],11.6%
same,"viability, T/C",[21],8.59%
same,"viability, T/C",[22],4.72%
same,"viability, T/C","second compound 0.03 µM, first compound 3.16 µM",7.7%
same,"viability, T/C","second compound 0.03 µM, first compound 10 µM",5.42%
same,"viability, T/C",[23],10.1%
same,"viability, T/C",[24],7.94%
same,"viability, T/C",[25],6.73%
same,"viability, T/C",[26],6.62%
same,"viability, T/C","second compound 0.0949 µM, first compound 3.16 µM",6.38%
same,"viability, T/C","second compound 0.0949 µM, first compound 10 µM",3.71%
same,"viability, T/C",[27],7.15%
same,"viability, T/C",[28],6.24%
same,"viability, T/C",[29],5.96%
same,"viability, T/C",[30],3.97%
same,"viability, T/C","second compound 0.3 µM, first compound 3.16 µM",3.82%
same,"viability, T/C","second compound 0.3 µM, first compound 10 µM",4.35%
